Broadly, the logD is lipophilicity at a set pH, counting ionised and neutral species. A high value points to higher lipophilicity. For orientation: solubility means how much of the substance goes into solution per volume. What is called pKa is the negative logarithm of the acid dissociation constant. By inhibition is commonly meant the relative decrease from the control value, in per cent. A word on the microsomal CLint: it is a measure of how fast metabolising enzymes remove a compound, apart from limits set by blood flow. By Papp A→B is commonly meant how fast a substance crosses the layer from the apical side. Broadly, the fraction unbound is free concentration divided by total concentration. Low values mean extensive binding, high ones weak binding.

The text below walks through data of ChEMBL document CHEMBL4033761 (ACS Med Chem Lett, 2017).

In brackets after ≈: the same amount, converted by molar mass. Where only a bound is given, the exact number is not on record here.

Data set [1] can be described thus: Distribution coefficient, log D of compound at pH 7.4. Conditions: octanol/water.
Data set [2] in a line: Solubility of compound in DMSO.
Data set [3] is described as follows: Dissociation constant, pKa of the compound by UV absorbance method. Format: physicochemical.
The next data set deals with hERG (KCNH2) (Homo sapiens, UniProt Q12809). The experiment in a line: in vitro.
A short description of data set [4]: Intrinsic clearance in human liver microsomes. Background: Liver microsomes are vesicles of endoplasmic reticulum, rich in cytochrome P450 enzymes.
The nature of data set [5]: Apparent permeability of the compound across apical side to basolateral side in human Caco2 cells. The following applies: Caco-2. On the technique in general: Caco-2 monolayers are a common model of the intestinal barrier.
Data set [6] can be described thus: Fraction unbound in human plasma.
Data set [7] is described as follows: Dissociation constant, pKa of the compound by potentiometric titretion method.

hERG (KCNH2), sequence (Q12809 whole entry): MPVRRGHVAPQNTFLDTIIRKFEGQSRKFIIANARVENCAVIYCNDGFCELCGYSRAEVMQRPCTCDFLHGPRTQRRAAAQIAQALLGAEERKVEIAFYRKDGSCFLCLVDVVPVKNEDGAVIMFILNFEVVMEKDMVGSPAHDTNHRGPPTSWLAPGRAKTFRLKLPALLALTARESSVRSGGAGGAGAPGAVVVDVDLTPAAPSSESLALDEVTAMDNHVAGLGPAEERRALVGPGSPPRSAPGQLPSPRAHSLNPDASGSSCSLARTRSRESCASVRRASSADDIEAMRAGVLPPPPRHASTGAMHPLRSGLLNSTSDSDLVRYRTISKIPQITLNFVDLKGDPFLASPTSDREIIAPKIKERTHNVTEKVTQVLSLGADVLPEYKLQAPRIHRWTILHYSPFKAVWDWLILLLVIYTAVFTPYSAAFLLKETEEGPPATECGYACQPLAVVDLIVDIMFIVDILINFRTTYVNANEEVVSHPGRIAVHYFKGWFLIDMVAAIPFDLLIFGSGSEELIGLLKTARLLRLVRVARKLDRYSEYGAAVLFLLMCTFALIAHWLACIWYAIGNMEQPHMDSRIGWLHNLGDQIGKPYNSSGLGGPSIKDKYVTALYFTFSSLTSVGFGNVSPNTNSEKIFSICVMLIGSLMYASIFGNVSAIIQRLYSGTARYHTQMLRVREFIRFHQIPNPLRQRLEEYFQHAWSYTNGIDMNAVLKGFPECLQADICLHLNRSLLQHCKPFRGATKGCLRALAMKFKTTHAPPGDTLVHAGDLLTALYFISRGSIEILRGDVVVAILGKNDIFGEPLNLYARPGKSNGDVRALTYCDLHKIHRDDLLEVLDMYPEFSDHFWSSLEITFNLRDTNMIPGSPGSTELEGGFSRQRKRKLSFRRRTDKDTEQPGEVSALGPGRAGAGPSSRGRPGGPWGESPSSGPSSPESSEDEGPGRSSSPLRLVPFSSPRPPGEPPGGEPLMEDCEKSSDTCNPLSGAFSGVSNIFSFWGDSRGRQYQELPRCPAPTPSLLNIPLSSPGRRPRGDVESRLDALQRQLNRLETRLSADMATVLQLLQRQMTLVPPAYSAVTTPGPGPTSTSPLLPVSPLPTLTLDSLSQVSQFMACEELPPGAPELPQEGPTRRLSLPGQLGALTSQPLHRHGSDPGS
Description for hERG (KCNH2): Inhibition of human ERG at 11 uM by single shot IonWork assay relative to control

`O=C1c2ccccc2S(=O)(=O)N1Cc1ccccc1` registered a pH-dependent lipophilicity (logD) in data set [1] of -1.8. The compound further displayed a solubility in data set [2] of less than 0.01 µM.

`CCN1C(=O)c2ccccc2S1(=N)=O` (stereo not drawn): the logD in data set [1] came to 0.7. For the same compound, the pKa in data set [3] stood at 8.9. The inhibition at 11 µM against hERG (KCNH2) was -4.7%. Further, the solubility in data set [2] was 512 µM (≈ 108 µg/mL). The intrinsic metabolic clearance (microsomal CLint) in data set [4] (liver microsomes) was less than 3 µL/min/mg. In addition, in data set [5], the Papp A→B is 92 ×10⁻⁶ cm/s. The compound further gave an unbound share (fraction unbound) in data set [6] of 0.83.

Take `N=S1(=O)c2ccccc2C(=O)N1c1ccccc1` (stereo not drawn): the pH-dependent lipophilicity (logD) in data set [1] was found to be 1.3. Also, the pKa in data set [3] stood at 8.3. Further, the inhibition at 11 µM against hERG (KCNH2) was -25.6%. The compound further displayed a solubility in data set [2] of 578 µM (≈ 149 µg/mL). In addition, in data set [4] (liver microsomes), the intrinsic clearance (microsomal CLint) came out at 93.5 µL/min/mg.

In the case of `O=C1N=S(=O)(Nc2ccccc2)c2ccccc21` (stereo not drawn), the pH-dependent lipophilicity (logD) in data set [1] is -1.1. Moreover, in data set [3], the pKa is 4.1. Besides, the inhibition at 11 µM against hERG (KCNH2) worked out at 5.2%. In addition, in data set [2], the concentration in solution (solubility) came to 958 µM (≈ 247 µg/mL). In data set [4] (liver microsomes), this compound returned a microsomal CLint of less than 3 µL/min/mg. In data set [5], the Papp A→B worked out at 6.57 ×10⁻⁶ cm/s. Also, the unbound share (fraction unbound) in data set [6] came to 0.088.

Compound `C[C@H](NS1(=O)=NC(=O)c2ccccc21)c1ccccc1` (single isomer, unassigned) came in with a logD in data set [1] of 0.8. The same compound yielded a pKa in data set [3] of 6.55. The compound further had a solubility in data set [2] of 107 µM (≈ 30.6 µg/mL). The same compound registered a microsomal CLint in data set [4] (liver microsomes) of less than 3 µL/min/mg. Moreover, the apparent permeability from apical to basolateral (Papp A→B) in data set [5] stood at 47 ×10⁻⁶ cm/s. Also, the fraction unbound in data set [6] was 0.089.

`CCNC1=NS(=O)(=O)c2ccccc21`: in data set [1], the pH-dependent lipophilicity (logD) is 0.7. The compound further came in with a pKa in data set [3] of 11.7. At hERG (KCNH2), the inhibition at 11 µM amounted to 18.4%. In data set [2], this compound yielded a solubility of 971 µM (≈ 204 µg/mL). Also, the microsomal CLint in data set [4] (liver microsomes) is less than 3 µL/min/mg. The Papp A→B in data set [5] was 29.3 ×10⁻⁶ cm/s. For the same compound, the fraction unbound in data set [6] was determined as 0.56.

For `NS1(=O)=NC(=O)c2ccccc21` (stereo not drawn), in data set [3], the pKa worked out at 5.7. Further, in data set [4] (liver microsomes), the intrinsic clearance (microsomal CLint) is less than 3 µL/min/mg. This compound yielded an unbound share (fraction unbound) in data set [6] of 0.4.

As for `CCN1C(=O)c2ccccc2S1(=O)=O`, the inhibition at 11 µM on hERG (KCNH2) was determined as 3.6%. Also, the solubility in data set [2] is less than 13 µM. Further, in data set [5], the Papp A→B was found to be 125 ×10⁻⁶ cm/s.

With `N=S1(=O)c2ccccc2C(=O)N1Cc1ccccc1` (stereo not drawn), the logD in data set [1] turned out to be 1.8. In data set [3], this compound showed a pKa of 8.7. Besides, the inhibition at 11 µM on hERG (KCNH2) is -7.4%. In data set [2], this compound yielded a solubility of 946 µM (≈ 258 µg/mL). This compound also yielded a microsomal CLint in data set [4] (liver microsomes) of 19.2 µL/min/mg. Moreover, the apparent permeability from apical to basolateral (Papp A→B) in data set [5] worked out at 84.7 ×10⁻⁶ cm/s.

`C[C@H](N[S@]1(=O)=NC(=O)c2ccccc21)c1ccccc1` displayed a logD in data set [1] of 1.4. Also, in data set [3], the pKa was 6.62. Moreover, in data set [2], the solubility was 13 µM (≈ 3.72 µg/mL). The same compound returned a microsomal CLint in data set [4] (liver microsomes) of less than 3 µL/min/mg. Also, the Papp A→B in data set [5] was found to be 63 ×10⁻⁶ cm/s. In data set [6], this compound displayed a fraction unbound of 0.014.

In turn, `O=C1NS(=O)(=O)c2ccccc21` [SACCHARIN] gave a logD in data set [1] of less than -0.1. In addition, the solubility in data set [2] amounted to 838 µM (≈ 154 µg/mL). Moreover, the pKa in data set [7] came out at 3.1. Besides, in data set [4] (microsomes), the intrinsic metabolic clearance (microsomal CLint) is less than 3 µL/min/mg. Further, the Papp A→B in data set [5] is less than 0.75 ×10⁻⁶ cm/s. Further, the free fraction (fraction unbound) in data set [6] is 0.37.

On to `O=C1N=S(=O)(NCc2ccccc2)c2ccccc21` (stereo not drawn), for which, in data set [1], the logD is 0.8. Besides, the pKa in data set [3] is 6.5. At hERG (KCNH2), the inhibition at 11 µM is -1.9%. For the same compound, the concentration in solution in data set [2] (solubility) was 869 µM (≈ 237 µg/mL). The intrinsic clearance (microsomal CLint) in data set [4] (liver microsomes) is less than 3 µL/min/mg. In data set [5], the Papp A→B turned out to be 70.7 ×10⁻⁶ cm/s. The compound further had a fraction unbound in data set [6] of 0.12.

On to `O=S1(=O)N=C(Nc2ccccc2)c2ccccc21`, for which the log distribution coefficient (logD) in data set [1] turned out to be 2. For the same compound, the inhibition at 11 µM against hERG (KCNH2) was determined as 11.1%. Besides, the solubility in data set [2] was 7 µM (≈ 1.81 µg/mL). The same compound gave a microsomal CLint in data set [4] (liver microsomes) of 85.4 µL/min/mg. Moreover, the unbound share (fraction unbound) in data set [6] stood at 0.16.

On to `CCN=S1(=O)NC(=O)c2ccccc21` (stereo not drawn), for which the pH-dependent lipophilicity (logD) in data set [1] was determined as 0.1. The same compound returned a pKa in data set [3] of 6.9. The inhibition at 11 µM on hERG (KCNH2) is 1.3%. Also, in data set [2], the solubility is 947 µM (≈ 199 µg/mL). Also, the microsomal CLint in data set [4] (liver microsomes) is less than 3 µL/min/mg. In addition, the Papp A→B in data set [5] was found to be 26.8 ×10⁻⁶ cm/s. The unbound share (fraction unbound) in data set [6] amounted to 0.41.

`NC1=NS(=O)(=O)c2ccccc21` had a log distribution coefficient (logD) in data set [1] of 0.2. Besides, the pKa in data set [3] turned out to be 11.4. Besides, the solubility in data set [2] was determined as 798 µM (≈ 145 µg/mL). This compound returned a microsomal CLint in data set [4] (liver microsomes) of less than 3 µL/min/mg. Further, in data set [5], the Papp A→B was determined as 7.39 ×10⁻⁶ cm/s. For the same compound, in data set [6], the free fraction (fraction unbound) was determined as 0.48.

In data set [1], `O=S1(=O)N=C(NCc2ccccc2)c2ccccc21` registered a log distribution coefficient (logD) of 1.9. Further, the inhibition at 11 µM against hERG (KCNH2) turned out to be 2.8%. The compound also yielded a solubility in data set [2] of 89 µM (≈ 24.2 µg/mL). The compound further returned a microsomal CLint in data set [4] (liver microsomes) of less than 3 µL/min/mg. Further, the unbound share (fraction unbound) in data set [6] was found to be 0.2.
